Test results as given in PMC10209615, “Pharmacological inhibition of LSD1 suppresses growth of hepatocellular carcinoma by inducing GADD45B” (MedComm, 2023).

Legend:
Flt4 = target: T1, Flt4 (Homo sapiens, UniProt P35916); test: Kinase activity detection (Eurofins); type: biochemical
T1 construct: purchased Eurofins Pharma Discovery Services
Protocol: (§1) The activity of ZY0511 against 104 cancer‐related kinases was carried out by Eurofins Pharma Discovery Services (Celle Lévescault, France).

PI3 Kinase (p110α/p85α) = target: T2, PI3 Kinase (p110α/p85α) (Homo sapiens, UniProt P42336); test: Kinase activity detection (Eurofins); type: biochemical; conditions: ZY0511 1 µM, read-out: Inhibition rate
T2 construct: purchased Eurofins Pharma Discovery Services (KinaseProfiler)
Protocol: as §1

PKCµ = target: T3, PKCµ (Homo sapiens, UniProt Q15139); test: Kinase activity detection (Eurofins); type: biochemical; conditions: ZY0511 1 µM, read-out: Inhibition rate
T3 construct: purchased Eurofins Pharma Discovery Services
Protocol: as §1

Wee1 = target: T4, Wee1 (Homo sapiens, UniProt P30291); test: Kinase activity detection (Eurofins); type: biochemical; conditions: ZY0511 1 µM, read-out: Activation rate
T4 construct: purchased Eurofins Pharma Discovery Services (KinaseProfiler)
Protocol: as §1

B-Raf (V599E) = target: T5, B-Raf (V599E) (Homo sapiens, UniProt P15056, V600E); test: Kinase activity detection (Eurofins); type: biochemical; conditions: ZY0511 1 µM, read-out: Inhibition rate
T5 construct: purchased Eurofins Pharma Discovery Services (KinaseProfiler)
T5 sequence (P15056 417-766 V600E limits assumed): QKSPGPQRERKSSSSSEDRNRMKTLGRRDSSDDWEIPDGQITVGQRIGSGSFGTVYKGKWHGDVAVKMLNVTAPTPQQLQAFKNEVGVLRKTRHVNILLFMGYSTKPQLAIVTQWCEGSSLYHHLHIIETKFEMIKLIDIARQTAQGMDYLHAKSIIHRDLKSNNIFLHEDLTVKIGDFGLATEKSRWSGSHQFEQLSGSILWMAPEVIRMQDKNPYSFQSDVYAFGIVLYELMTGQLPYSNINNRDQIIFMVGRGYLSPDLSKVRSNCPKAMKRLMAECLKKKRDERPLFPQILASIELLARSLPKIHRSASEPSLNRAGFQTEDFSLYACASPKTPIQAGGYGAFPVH
Protocol: as §1

CHK2 = target: T6, CHK2 (Homo sapiens, UniProt O96017); test: Kinase activity detection (Eurofins); type: biochemical; conditions: ZY0511 1 µM, read-out: Activation rate
T6 construct: purchased Eurofins Pharma Discovery Services (KinaseProfiler)
Protocol: as §1

FGFR3 = target: T7, FGFR3 (Homo sapiens, UniProt P22607); test: Kinase activity detection (Eurofins); type: biochemical; conditions: ZY0511 1 µM, read-out: Inhibition rate
T7 construct: purchased Eurofins Pharma Discovery Services (KinaseProfiler)
Protocol: as §1

ATR/ATRIP = target: T8, ATR/ATRIP (Homo sapiens, UniProt Q13535); test: Kinase activity detection (Eurofins); type: biochemical
T8 construct: purchased Eurofins Pharma Discovery Services
T8 sequence (Q13535 whole entry): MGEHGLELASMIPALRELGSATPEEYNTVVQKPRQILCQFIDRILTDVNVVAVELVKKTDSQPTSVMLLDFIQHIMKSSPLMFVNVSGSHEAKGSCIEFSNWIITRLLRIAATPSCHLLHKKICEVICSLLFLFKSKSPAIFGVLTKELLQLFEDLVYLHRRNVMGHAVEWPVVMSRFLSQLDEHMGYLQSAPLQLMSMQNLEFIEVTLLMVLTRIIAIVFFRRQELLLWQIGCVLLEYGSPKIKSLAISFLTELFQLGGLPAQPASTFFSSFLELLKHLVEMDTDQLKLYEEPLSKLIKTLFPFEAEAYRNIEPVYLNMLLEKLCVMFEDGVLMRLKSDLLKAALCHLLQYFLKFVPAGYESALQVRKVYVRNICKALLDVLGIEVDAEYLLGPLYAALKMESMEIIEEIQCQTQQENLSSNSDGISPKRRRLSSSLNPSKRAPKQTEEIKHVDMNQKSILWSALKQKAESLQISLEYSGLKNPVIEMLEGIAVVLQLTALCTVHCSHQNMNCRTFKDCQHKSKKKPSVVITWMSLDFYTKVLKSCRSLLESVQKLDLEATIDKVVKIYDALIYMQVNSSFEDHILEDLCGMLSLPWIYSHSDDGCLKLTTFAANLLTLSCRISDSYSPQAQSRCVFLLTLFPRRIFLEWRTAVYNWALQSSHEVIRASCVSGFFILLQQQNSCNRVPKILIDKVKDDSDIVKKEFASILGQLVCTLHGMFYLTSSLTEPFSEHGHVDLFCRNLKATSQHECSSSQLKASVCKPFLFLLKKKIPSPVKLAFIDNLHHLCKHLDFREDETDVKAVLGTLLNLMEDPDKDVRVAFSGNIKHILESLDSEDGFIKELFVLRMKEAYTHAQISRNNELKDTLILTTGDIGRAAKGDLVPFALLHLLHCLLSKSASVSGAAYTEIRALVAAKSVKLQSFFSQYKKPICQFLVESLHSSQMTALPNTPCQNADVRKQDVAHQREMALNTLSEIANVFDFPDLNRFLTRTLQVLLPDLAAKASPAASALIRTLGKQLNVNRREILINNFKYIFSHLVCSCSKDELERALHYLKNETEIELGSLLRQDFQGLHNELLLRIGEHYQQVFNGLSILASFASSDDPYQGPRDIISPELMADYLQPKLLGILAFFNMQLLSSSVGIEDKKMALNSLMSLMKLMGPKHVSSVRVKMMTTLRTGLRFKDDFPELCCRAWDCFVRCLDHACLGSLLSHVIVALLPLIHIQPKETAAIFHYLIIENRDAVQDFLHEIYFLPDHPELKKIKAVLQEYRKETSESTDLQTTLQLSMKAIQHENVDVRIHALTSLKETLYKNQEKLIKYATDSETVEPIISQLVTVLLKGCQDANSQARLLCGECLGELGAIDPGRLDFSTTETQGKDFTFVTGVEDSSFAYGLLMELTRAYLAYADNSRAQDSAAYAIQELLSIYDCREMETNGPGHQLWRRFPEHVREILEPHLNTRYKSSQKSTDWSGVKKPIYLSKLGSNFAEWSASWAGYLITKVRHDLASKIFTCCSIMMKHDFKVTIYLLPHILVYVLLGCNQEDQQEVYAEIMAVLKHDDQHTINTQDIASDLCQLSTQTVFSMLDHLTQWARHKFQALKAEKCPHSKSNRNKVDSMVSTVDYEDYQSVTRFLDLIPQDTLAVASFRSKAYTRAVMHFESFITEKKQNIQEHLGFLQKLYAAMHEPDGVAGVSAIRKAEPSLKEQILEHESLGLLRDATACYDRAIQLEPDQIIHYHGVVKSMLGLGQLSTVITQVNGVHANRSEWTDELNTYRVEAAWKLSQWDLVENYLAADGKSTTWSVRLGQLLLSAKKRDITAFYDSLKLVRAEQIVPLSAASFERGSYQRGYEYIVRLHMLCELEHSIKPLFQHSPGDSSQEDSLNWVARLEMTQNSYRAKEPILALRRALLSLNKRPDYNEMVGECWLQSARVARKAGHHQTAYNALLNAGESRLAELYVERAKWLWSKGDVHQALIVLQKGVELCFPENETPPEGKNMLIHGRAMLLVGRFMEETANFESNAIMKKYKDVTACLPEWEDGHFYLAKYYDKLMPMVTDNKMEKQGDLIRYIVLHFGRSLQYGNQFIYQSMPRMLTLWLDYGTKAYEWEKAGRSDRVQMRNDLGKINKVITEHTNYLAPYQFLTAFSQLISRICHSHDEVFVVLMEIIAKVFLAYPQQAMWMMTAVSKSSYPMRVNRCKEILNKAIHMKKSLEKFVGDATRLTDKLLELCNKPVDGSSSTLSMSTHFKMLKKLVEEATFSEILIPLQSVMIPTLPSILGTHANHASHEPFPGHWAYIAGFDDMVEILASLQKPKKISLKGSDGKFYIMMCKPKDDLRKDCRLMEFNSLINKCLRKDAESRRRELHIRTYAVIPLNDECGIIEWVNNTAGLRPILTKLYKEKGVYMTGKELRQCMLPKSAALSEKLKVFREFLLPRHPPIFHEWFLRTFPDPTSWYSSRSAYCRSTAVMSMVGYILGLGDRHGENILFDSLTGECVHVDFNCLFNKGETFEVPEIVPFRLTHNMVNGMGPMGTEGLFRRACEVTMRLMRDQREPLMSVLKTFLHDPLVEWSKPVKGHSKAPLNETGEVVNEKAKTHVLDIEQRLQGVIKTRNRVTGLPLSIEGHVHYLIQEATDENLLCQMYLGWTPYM
T8 sequence (Q8WXE1 whole entry partner): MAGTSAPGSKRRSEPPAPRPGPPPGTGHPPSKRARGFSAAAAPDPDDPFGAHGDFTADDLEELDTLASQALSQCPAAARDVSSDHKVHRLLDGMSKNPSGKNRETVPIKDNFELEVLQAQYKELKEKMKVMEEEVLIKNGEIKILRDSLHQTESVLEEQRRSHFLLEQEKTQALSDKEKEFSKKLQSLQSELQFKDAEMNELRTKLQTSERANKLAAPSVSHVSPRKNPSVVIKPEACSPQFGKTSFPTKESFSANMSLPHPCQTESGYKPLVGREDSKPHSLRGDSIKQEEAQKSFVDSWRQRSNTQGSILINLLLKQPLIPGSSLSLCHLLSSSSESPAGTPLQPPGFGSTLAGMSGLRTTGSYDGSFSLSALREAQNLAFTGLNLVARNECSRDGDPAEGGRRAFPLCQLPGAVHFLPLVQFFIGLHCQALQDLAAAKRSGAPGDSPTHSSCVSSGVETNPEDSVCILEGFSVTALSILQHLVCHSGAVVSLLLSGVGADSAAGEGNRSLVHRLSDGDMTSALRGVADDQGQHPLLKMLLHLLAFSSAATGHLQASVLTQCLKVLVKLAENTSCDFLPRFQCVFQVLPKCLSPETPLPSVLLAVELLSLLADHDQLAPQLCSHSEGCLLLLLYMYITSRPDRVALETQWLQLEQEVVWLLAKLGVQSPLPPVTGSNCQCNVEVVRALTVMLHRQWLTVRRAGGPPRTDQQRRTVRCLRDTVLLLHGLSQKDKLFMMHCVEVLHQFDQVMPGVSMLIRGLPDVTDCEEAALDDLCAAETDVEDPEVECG
Protocol: as §1

cKit (V560G) = target: T9, cKit (V560G) (Homo sapiens, UniProt P10721, V560G); test: Kinase activity detection (Eurofins); type: biochemical; conditions: ZY0511 1 µM, read-out: Inhibition rate
T9 construct: purchased Eurofins Pharma Discovery Services (KinaseProfiler)
Protocol: as §1

CHK1 = target: T10, CHK1 (Homo sapiens, UniProt O14757); test: Kinase activity detection (Eurofins); type: biochemical; conditions: ZY0511 1 µM
T10 construct: purchased Eurofins Pharma Discovery Services (KinaseProfiler)
Protocol: as §1

Flt3 (D835Y) = target: T11, Flt3 (D835Y) (Homo sapiens, UniProt P36888, D835Y); test: Kinase activity detection (Eurofins); type: biochemical; conditions: ZY0511 1 µM, read-out: Inhibition rate
T11 construct: purchased Eurofins Pharma Discovery Services
Protocol: as §1

Hck = target: T12, Hck (Homo sapiens, UniProt P08631); test: Kinase activity detection (Eurofins); type: biochemical; conditions: ZY0511 1 µM, read-out: Inhibition rate
T12 construct: purchased Eurofins Pharma Discovery Services (KinaseProfiler)
Protocol: as §1

cSRC = target: T13, cSRC (Homo sapiens, UniProt P12931); test: Kinase activity detection (Eurofins); type: biochemical; conditions: ZY0511 1 µM, read-out: Activation rate
T13 construct: purchased Eurofins Pharma Discovery Services (KinaseProfiler)
Protocol: as §1

CDK1/CyclinB = target: T14, CDK1/CyclinB (Homo sapiens, UniProt P06493); test: Kinase activity detection (Eurofins); type: biochemical; conditions: ZY0511 1 µM, read-out: Activation rate
T14 construct: purchased Eurofins Pharma Discovery Services (KinaseProfiler)
Protocol: as §1

ErbB4 = target: T15, ErbB4 (Homo sapiens, UniProt Q15303); test: Kinase activity detection (Eurofins); type: biochemical; conditions: ZY0511 1 µM, read-out: Activation rate
T15 construct: purchased Eurofins Pharma Discovery Services (KinaseProfiler)
Protocol: as §1

EphA7 = target: T16, EphA7 (Rattus norvegicus, UniProt P54759); test: Kinase activity detection (Eurofins); type: biochemical; conditions: ZY0511 1 µM, read-out: Inhibition rate
T16 construct: purchased Eurofins Pharma Discovery Services
Protocol: as §1

[1] = target: T17, PI3 Kinase (p110α (E545K)/p85α) (Homo sapiens, UniProt P42336, E545K); test: Kinase activity detection (Eurofins); type: biochemical; conditions: ZY0511 1 µM, read-out: Inhibition rate
T17 construct: purchased Eurofins Pharma Discovery Services (KinaseProfiler)
Protocol: as §1

MEK1 = target: T18, MEK1 (Homo sapiens, UniProt Q02750); test: Kinase activity detection (Eurofins); type: biochemical; conditions: ZY0511 1 µM, read-out: Inhibition rate
T18 construct: purchased Eurofins Pharma Discovery Services (KinaseProfiler)
Protocol: as §1

PAK4 = target: T19, PAK4 (Homo sapiens, UniProt O96013); test: Kinase activity detection (Eurofins); type: biochemical; conditions: ZY0511 1 µM, read-out: Inhibition rate
T19 construct: purchased Eurofins Pharma Discovery Services (KinaseProfiler)
Protocol: as §1

PKCθ = target: T20, PKCθ (Homo sapiens, UniProt Q04759); test: Kinase activity detection (Eurofins); type: biochemical; conditions: ZY0511 1 µM, read-out: Inhibition rate
T20 construct: purchased Eurofins Pharma Discovery Services
Protocol: as §1

FGFR1 = target: T21, FGFR1 (Homo sapiens, UniProt P11362); test: Kinase activity detection (Eurofins); type: biochemical; conditions: ZY0511 1 µM, read-out: Activation rate
T21 construct: purchased Eurofins Pharma Discovery Services (KinaseProfiler)
Protocol: as §1

ALK = target: T22, ALK (Homo sapiens, UniProt Q9UM73); test: Kinase activity detection (Eurofins); type: biochemical; conditions: ZY0511 1 µM, read-out: Activation rate
T22 construct: purchased Eurofins Pharma Discovery Services (KinaseProfiler)
Protocol: as §1

MELK = target: T23, MELK (Homo sapiens, UniProt Q14680); test: Kinase activity detection (Eurofins); type: biochemical; conditions: ZY0511 1 µM, read-out: Inhibition rate
T23 construct: purchased Eurofins Pharma Discovery Services
Protocol: as §1

DNA-PK = target: T24, DNA-PK (Homo sapiens, UniProt P78527); test: Kinase activity detection (Eurofins); type: biochemical
T24 construct: purchased Eurofins Pharma Discovery Services
Protocol: as §1

Mer = target: T25, Mer (Homo sapiens, UniProt Q12866); test: Kinase activity detection (Eurofins); type: biochemical; conditions: ZY0511 1 µM, read-out: Activation rate
T25 construct: purchased Eurofins Pharma Discovery Services (KinaseProfiler)
Protocol: as §1

ROCK-I = target: T26, ROCK-I (Homo sapiens, UniProt Q13464); test: Kinase activity detection (Eurofins); type: biochemical; conditions: ZY0511 1 µM, read-out: Inhibition rate
T26 construct: purchased Eurofins Pharma Discovery Services
Protocol: as §1

IKKα = target: T27, IKKα (Homo sapiens, UniProt O15111); test: Kinase activity detection (Eurofins); type: biochemical; conditions: ZY0511 1 µM, read-out: Activation rate
T27 construct: purchased Eurofins Pharma Discovery Services (KinaseProfiler)
Protocol: as §1

PDX3 tumors = test: Third PDX model (PDX3), ZY0511 and DTP3; type: in vivo, NOD/SCID mice
Protocol: For CDX models, HCC cells (HepG2, Hep3B) were harvested, and cells suspension (5 × 10^6 − 1 × 10^7 cells per mouse) were subcutaneously injected into the hind flank region of nude mice. For PDX models, fresh HCC tissues obtained from West China Hospital were minced into 2–5 mm^3 sizes to build the PDX models. The HCC tissue fragments were transplanted into the hind flank region of NOD/SCID mice within 2 h. Once the tumor volume reached ∼2 cm^3, the PDX models were expanded.
When the tumor volume reached approximately 100 mm^3, CDX & PDX tumor‐bearing mice were randomly divided into groups: (1) blank solvent; (2) ZY0511 50 mg/kg per day, i.p.; (3) ZY0511 100 mg/kg per day, i.p.; and (4) combinatorial treatment of ZY0511 50 mg/kg with DTP3 30 mg/kg, per day, i.p. Tumor sizes and animal body weights were monitored every 3 days, and tumor volumes were calculated as 0.5 × length × width^2. TGI rate was calculated as (1 − tumor volume of treated group/tumor volume of control group) x 100%.
Both procedures were carried out as previously described.[21] In brief, samples were fixated in 4% paraformaldehyde and consequently paraffin‐coated. Thin tissue segments (4 μm) were prepared, and H&E staining was performed. […]

[2] = ZY0511 1 µM, read-out: Inhibition rate

T1 sequence (P35916 25-1363, species assumed): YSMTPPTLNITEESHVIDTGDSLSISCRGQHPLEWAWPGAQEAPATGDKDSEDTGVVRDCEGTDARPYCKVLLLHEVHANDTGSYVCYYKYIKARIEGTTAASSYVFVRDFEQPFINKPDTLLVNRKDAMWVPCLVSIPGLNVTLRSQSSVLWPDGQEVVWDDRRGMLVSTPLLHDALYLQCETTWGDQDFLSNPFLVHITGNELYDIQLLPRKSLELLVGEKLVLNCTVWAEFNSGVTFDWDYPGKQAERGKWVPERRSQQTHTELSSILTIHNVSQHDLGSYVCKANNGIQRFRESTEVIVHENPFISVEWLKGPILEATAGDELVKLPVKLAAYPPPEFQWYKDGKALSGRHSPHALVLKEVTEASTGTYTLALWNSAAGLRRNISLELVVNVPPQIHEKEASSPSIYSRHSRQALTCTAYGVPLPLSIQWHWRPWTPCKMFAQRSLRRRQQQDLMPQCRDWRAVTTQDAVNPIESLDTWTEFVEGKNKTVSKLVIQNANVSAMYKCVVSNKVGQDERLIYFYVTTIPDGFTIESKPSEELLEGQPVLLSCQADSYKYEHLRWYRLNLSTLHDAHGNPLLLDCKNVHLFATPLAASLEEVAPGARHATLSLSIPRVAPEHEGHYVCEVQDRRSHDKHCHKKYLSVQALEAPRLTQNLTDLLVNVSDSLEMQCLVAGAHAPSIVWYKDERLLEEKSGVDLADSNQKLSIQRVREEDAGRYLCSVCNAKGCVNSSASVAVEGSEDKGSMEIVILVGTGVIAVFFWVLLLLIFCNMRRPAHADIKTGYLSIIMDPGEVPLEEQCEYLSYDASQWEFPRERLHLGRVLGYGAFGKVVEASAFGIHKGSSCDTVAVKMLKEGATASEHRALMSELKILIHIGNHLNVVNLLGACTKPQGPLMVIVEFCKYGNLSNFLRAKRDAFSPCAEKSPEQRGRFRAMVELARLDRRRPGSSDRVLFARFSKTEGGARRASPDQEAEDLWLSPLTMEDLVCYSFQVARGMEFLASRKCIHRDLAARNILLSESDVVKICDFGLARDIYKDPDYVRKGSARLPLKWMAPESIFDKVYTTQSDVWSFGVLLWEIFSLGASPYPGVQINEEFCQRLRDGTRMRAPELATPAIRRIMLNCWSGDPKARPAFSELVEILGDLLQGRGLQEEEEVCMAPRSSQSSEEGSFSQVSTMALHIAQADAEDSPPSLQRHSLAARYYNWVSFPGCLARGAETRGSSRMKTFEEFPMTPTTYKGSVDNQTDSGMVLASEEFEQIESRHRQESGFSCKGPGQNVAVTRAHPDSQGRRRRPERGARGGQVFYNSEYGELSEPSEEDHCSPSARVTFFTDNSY

Q: `O=C(N/N=C1\CCc2c(Cl)ccc(O)c21)c1cccc(S(=O)(=O)N2CCOCC2)c1` [ZY0511, (E)‐N'‐(2, 3‐dihydro‐1H‐inden‐1‐ylidene) benzohydrazides] was tested. Which IC50 (Flt4) did it give?
A: > 10 µM

Q: And the inhibition at 1 µM (Flt4; [2])?
A: 62%

Q: And the inhibition at 1 µM (PI3 Kinase (p110α/p85α))?
A: 6%

Q: And the inhibition at 1 µM (PKCµ)?
A: 10%

Q: What about the activation at 1 µM (Wee1) of the same compound?
A: 11%

Q: And the inhibition at 1 µM (B-Raf (V599E))?
A: 51%

Q: And the activation at 1 µM (CHK2)?
A: 2%

Q: And the inhibition at 1 µM (FGFR3)?
A: 20%

Q: What about the IC50 (ATR/ATRIP) of the same compound?
A: 9.59 µM

Q: What about the inhibition at 1 µM (ATR/ATRIP; [2]) of the same compound?
A: 62%

Q: And the inhibition at 1 µM (cKit (V560G))?
A: 7%

Q: What about the Activation rate (CHK1) of the same compound?
A: 1%

Q: And the inhibition at 1 µM (Flt3 (D835Y))?
A: 11%

Q: What about the inhibition at 1 µM (Hck) of the same compound?
A: 29%

Q: What about the activation at 1 µM (cSRC) of the same compound?
A: 4%

Q: What about the activation at 1 µM (CDK1/CyclinB) of the same compound?
A: 3%

Q: What about the activation at 1 µM (ErbB4) of the same compound?
A: 10%

Q: And the inhibition at 1 µM (EphA7)?
A: 2%

Q: And the inhibition at 1 µM [1]?
A: 15%

Q: What about the inhibition at 1 µM (MEK1) of the same compound?
A: 6%

Q: What about the inhibition at 1 µM (PAK4) of the same compound?
A: 20%

Q: What about the inhibition at 1 µM (PKCθ) of the same compound?
A: 3%

Q: And the activation at 1 µM (FGFR1)?
A: 1%

Q: And the activation at 1 µM (ALK)?
A: 23%

Q: What about the inhibition at 1 µM (MELK) of the same compound?
A: 1%

Q: What about the inhibition at 1 µM (DNA-PK; DNA-PK, ZY0511 1 µM, read-out: Inhibition rate) of the same compound?
A: 60%

Q: And the IC50 (DNA-PK; DNA‐PK)?
A: > 10 µM

Q: What about the activation at 1 µM (Mer) of the same compound?
A: 2%

Q: What about the inhibition at 1 µM (ROCK-I) of the same compound?
A: 11%

Q: What about the activation at 1 µM (IKKα) of the same compound?
A: 13%

Q: And the TGI (PDX3 tumors; PDX3, ZY0511 50 mg/kg i.p., 15 days)?
A: 32.79%

Q: What about the mice body weight (PDX3 tumors; PDX3, ZY0511 and/or DTP3, 15 days) of the same compound?
A: no change
